Experimental data from PubChem BioAssay AID256 (DTP/NCI, 2004).
Several values for one entry are separate records, joined by “and”; a condition that tells them apart may be missing. Identical values can stand only once. Toxic doses and inconclusive results are not listed.

Tested on: CD2F1 mice, L1210 leukemia ip, survival T/C
Experiment: NCI In Vivo Anticancer Drug Screen. Data for tumor model L1210 Leukemia (intraperitoneal) in CD2F1 (CDF1) mice
Conditions: higher = longer survival
Summary of the method: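 Transplantable tumor in mice; compound-treated vs vehicle-treated groups. Read-out = treated/control ratio of the measured endpoint.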

[1] = endpoint: mean survival time, dose: 50.0 mg/kg/injection, schedule: Q04DX003 (ip), vehicle: saline with Tween-80
[2] = endpoint: mean survival time, dose: 100.0 mg/kg/injection, schedule: Q04DX003 (ip), vehicle: saline with Tween-80
[3] = endpoint: mean survival time, dose: 100.0 mg/kg/injection, schedule: Q01DX001 (ip), vehicle: saline
[4] = endpoint: mean survival time, dose: 200.0 mg/kg/injection, schedule: Q01DX001 (ip), vehicle: saline
[5] = endpoint: mean survival time, dose: 400.0 mg/kg/injection, schedule: Q01DX001 (ip), vehicle: saline
[6] = endpoint: mean survival time, dose: 25.0 mg/kg/injection, schedule: Q01DX009 (ip), vehicle: saline
[7] = endpoint: mean survival time, dose: 50.0 mg/kg/injection, schedule: Q01DX009 (ip), vehicle: saline
[8] = endpoint: mean survival time, dose: 100.0 mg/kg/injection, schedule: Q01DX009 (ip), vehicle: saline
[9] = endpoint: mean survival time, dose: 200.0 mg/kg/injection, schedule: Q01DX001 (ip), vehicle: saline with Tween-80

CCOC(=O)C1(C(=O)OCC)C(C)CC2Nc3ccccc3C(=O)N21 (stereo not drawn)
T/C (endpoint: mean survival time, dose: 100.0 mg/kg/injection, schedule: Q01DX001 (ip), vehicle: Klucel (hydroxypropylcellulose) (HPC)): 100 % of control
T/C (endpoint: mean survival time, dose: 200.0 mg/kg/injection, schedule: Q01DX001 (ip), vehicle: Klucel (hydroxypropylcellulose) (HPC)): 96 % of control
T/C (endpoint: mean survival time, dose: 400.0 mg/kg/injection, schedule: Q01DX001 (ip), vehicle: Klucel (hydroxypropylcellulose) (HPC)): 92 % of control

O=C1C(NCCO)=C(N2CC2)C(=O)C(NCCO)=C1N1CC1
T/C (endpoint: median survival time, dose: 0.06 mg/kg/injection, schedule: Q01DX009 (ip), vehicle: saline): 122 % of control
T/C (endpoint: median survival time, dose: 0.25 mg/kg/injection, schedule: Q01DX009 (ip), vehicle: saline): 153 % of control
T/C (endpoint: median survival time, dose: 0.5 mg/kg/injection, schedule: Q01DX009 (ip), vehicle: saline): 171 % of control
T/C (endpoint: median survival time, dose: 1.0 mg/kg/injection, schedule: Q01DX009 (ip), vehicle: saline): 220 % of control
T/C (endpoint: median survival time, dose: 2.0 mg/kg/injection, schedule: Q01DX009 (ip), vehicle: saline): 86 % of control

Nc1ncnc(N)c1NC(=O)c1cccc(Cl)c1
T/C (endpoint: mean survival time, dose: 25.0 mg/kg/injection, schedule: Q04DX003 (ip), vehicle: saline with Tween-80): 100 % of control
T/C [1]: 100 % of control
T/C [2]: 118 % of control and 108 % of control

Cc1cc(C)c2[nH]c(=O)c(C)c(C)c2c1
T/C [3]: 96 % of control
T/C [4]: 96 % of control
T/C [5]: 93 % of control

O=C(O)CC(NC(=O)CP(=O)(O)O)C(=O)O.[NH-]C1CCCCC1[NH-].[Pt+2] (stereo not drawn)
T/C (endpoint: mean survival time, dose: 3.12 mg/kg/injection, schedule: Q01DX009 (ip), vehicle: dextrose): 238 % of control
T/C (endpoint: mean survival time, dose: 6.25 mg/kg/injection, schedule: Q01DX009 (ip), vehicle: dextrose): 274 % of control
T/C (endpoint: mean survival time, dose: 7.9 mg/kg/injection, schedule: Q04DX003 (ip), vehicle: saline): 122 % of control
T/C (endpoint: mean survival time, dose: 8.0 mg/kg/injection, schedule: Q04DX003 (ip), vehicle: dextrose): 231 % of control
T/C (endpoint: mean survival time, dose: 11.9 mg/kg/injection, schedule: Q04DX003 (ip), vehicle: dextrose): 280 % of control
T/C (endpoint: mean survival time, dose: 12.0 mg/kg/injection, schedule: Q04DX003 (ip), vehicle: dextrose): 174 % of control
T/C (endpoint: mean survival time, dose: 12.5 mg/kg/injection, schedule: Q01DX009 (ip), vehicle: dextrose): 92 % of control
T/C (endpoint: mean survival time, dose: 17.89 mg/kg/injection, schedule: Q04DX003 (ip), vehicle: dextrose): 237 % of control
T/C (endpoint: mean survival time, dose: 18.0 mg/kg/injection, schedule: Q04DX003 (ip), vehicle: dextrose): 225 % of control
T/C (endpoint: mean survival time, dose: 26.7 mg/kg/injection, schedule: Q04DX003 (ip), vehicle: dextrose): 184 % of control
T/C (endpoint: mean survival time, dose: 26.7 mg/kg/injection, schedule: Q04DX003 (ip), vehicle: saline): 260 % of control
T/C (endpoint: mean survival time, dose: 40.0 mg/kg/injection, schedule: Q04DX003 (ip), vehicle: dextrose): 265 % of control
T/C (endpoint: mean survival time, dose: 40.0 mg/kg/injection, schedule: Q04DX003 (ip), vehicle: saline): 298 % of control
T/C (endpoint: mean survival time, dose: 60.0 mg/kg/injection, schedule: Q04DX003 (ip), vehicle: dextrose): 194 % of control
T/C (endpoint: mean survival time, dose: 60.0 mg/kg/injection, schedule: Q04DX003 (ip), vehicle: saline): 306 % of control
T/C (endpoint: mean survival time, dose: 90.0 mg/kg/injection, schedule: Q04DX003 (ip), vehicle: dextrose): 169 % of control
T/C (endpoint: median survival time, dose: 2.0 mg/kg/injection, schedule: Q01DX009 (ip), vehicle: dextrose): 209 % of control
T/C (endpoint: median survival time, dose: 4.0 mg/kg/injection, schedule: Q01DX009 (ip), vehicle: dextrose): 262 % of control
T/C (endpoint: median survival time, dose: 9.0 mg/kg/injection, schedule: Q01DX009 (ip), vehicle: dextrose): 177 % of control
T/C (endpoint: median survival time, dose: 10.0 mg/kg/injection, schedule: Q01DX001 (ip), vehicle: dextrose): 182 % of control
T/C (endpoint: median survival time, dose: 15.0 mg/kg/injection, schedule: Q01DX001 (ip), vehicle: other): 201 % of control
T/C (endpoint: median survival time, dose: 17.98 mg/kg/injection, schedule: Q04DX003 (ip), vehicle: dextrose): 208 % of control
T/C (endpoint: median survival time, dose: 20.0 mg/kg/injection, schedule: Q01DX001 (ip), vehicle: dextrose): 206 % of control
T/C (endpoint: median survival time, dose: 27.0 mg/kg/injection, schedule: Q04DX003 (ip), vehicle: dextrose): 220 % of control
T/C (endpoint: median survival time, dose: 30.0 mg/kg/injection, schedule: Q01DX001 (ip), vehicle: other): 681 % of control
T/C (endpoint: median survival time, dose: 40.0 mg/kg/injection, schedule: Q01DX001 (ip), vehicle: dextrose): 188 % of control

O=C(O)c1ccc(C(=O)O)nc1
T/C [3]: 87 % of control
T/C [4]: 95 % of control
T/C [5]: 97 % of control

CC(C)(C)CC(C)(C)c1ccc(OCCOc2ccc(NS(=O)(=O)c3ccc(N)c([N+](=O)[O-])c3)cc2)cc1
T/C (endpoint: mean survival time, dose: 50.0 mg/kg/injection, schedule: Q01DX009 (ip), vehicle: Klucel (hydroxypropylcellulose) (HPC)): 101 % of control
T/C (endpoint: mean survival time, dose: 100.0 mg/kg/injection, schedule: Q01DX009 (ip), vehicle: Klucel (hydroxypropylcellulose) (HPC)): 101 % of control
T/C (endpoint: mean survival time, dose: 200.0 mg/kg/injection, schedule: Q01DX009 (ip), vehicle: Klucel (hydroxypropylcellulose) (HPC)): 98 % of control

COc1ccc(S(=O)[O-])cc1.C[c-]1[c-][c-][c-][c-]1.[C-]#[O+].[C-]#[O+].[Fe+6]
T/C (endpoint: mean survival time, dose: 6.25 mg/kg/injection, schedule: Q04DX002 (ip), vehicle: other): 95 % of control
T/C (endpoint: mean survival time, dose: 12.5 mg/kg/injection, schedule: Q04DX002 (ip), vehicle: other): 114 % of control
T/C (endpoint: mean survival time, dose: 25.0 mg/kg/injection, schedule: Q04DX002 (ip), vehicle: other): 100 % of control

CN(C)CCCCNc1ccc(NCCCCN(C)C)c2c1C(=O)c1c(O)ccc(O)c1C2=O
T/C [6]: 102 % of control
T/C [7]: 98 % of control
T/C [8]: 93 % of control

COC(=O)/C=N/Nc1ccc(C)cc1
T/C (endpoint: mean survival time, dose: 100.0 mg/kg/injection, schedule: Q01DX009 (ip), vehicle: water): 86 % of control
T/C (endpoint: mean survival time, dose: 200.0 mg/kg/injection, schedule: Q01DX009 (ip), vehicle: water): 88 % of control
T/C (endpoint: mean survival time, dose: 400.0 mg/kg/injection, schedule: Q01DX009 (ip), vehicle: water): 86 % of control

CN1CCC(Br)(C(=O)c2ccccc2)CC1
T/C (endpoint: mean survival time, dose: 37.5 mg/kg/injection, schedule: Q01DX009 (ip), vehicle: saline with Tween-80): 100 % of control
T/C (endpoint: mean survival time, dose: 75.0 mg/kg/injection, schedule: Q01DX009 (ip), vehicle: saline with Tween-80): 95 % of control
T/C (endpoint: mean survival time, dose: 75.0 mg/kg/injection, schedule: Q04DX003 (ip), vehicle: saline with Tween-80): 97 % of control
T/C (endpoint: mean survival time, dose: 150.0 mg/kg/injection, schedule: Q01DX009 (ip), vehicle: saline with Tween-80): 92 % of control
T/C (endpoint: mean survival time, dose: 150.0 mg/kg/injection, schedule: Q04DX003 (ip), vehicle: saline with Tween-80): 98 % of control

NC1CCC(C(=O)O)CC1 (stereo not drawn)
T/C [6]: 105 % of control
T/C [7]: 97 % of control and 105 % of control
T/C [8]: 94 % of control and 102 % of control
T/C (endpoint: mean survival time, dose: 200.0 mg/kg/injection, schedule: Q01DX009 (ip), vehicle: saline): 102 % of control

CC/C=C(\CC)C(=O)O
T/C (endpoint: mean survival time, dose: 50.0 mg/kg/injection, schedule: Q01DX009 (ip), vehicle: saline with Tween-80): 109 % of control
T/C (endpoint: mean survival time, dose: 100.0 mg/kg/injection, schedule: Q01DX009 (ip), vehicle: saline with Tween-80): 105 % of control
T/C (endpoint: mean survival time, dose: 200.0 mg/kg/injection, schedule: Q01DX009 (ip), vehicle: saline with Tween-80): 105 % of control

N#CC1=C(NC2OCC(O)C(O)C2O)CCC1 (stereo not drawn)
T/C (endpoint: mean survival time, dose: 12.5 mg/kg/injection, schedule: Q01DX005 (ip), vehicle: other): 108 % of control
T/C (endpoint: mean survival time, dose: 25.0 mg/kg/injection, schedule: Q01DX005 (ip), vehicle: other): 95 % of control
T/C (endpoint: mean survival time, dose: 50.0 mg/kg/injection, schedule: Q01DX005 (ip), vehicle: other): 98 % of control
T/C (endpoint: mean survival time, dose: 100.0 mg/kg/injection, schedule: Q01DX005 (ip), vehicle: other): 98 % of control
T/C (endpoint: mean survival time, dose: 200.0 mg/kg/injection, schedule: Q01DX005 (ip), vehicle: other): 89 % of control

CCOC(=S)SCC(=O)O
T/C (endpoint: mean survival time, dose: 100.0 mg/kg/injection, schedule: Q01DX001 (ip), vehicle: saline with Tween-80): 92 % of control
T/C [9]: 96 % of control

COc1ccc2nc3c(Cl)cccc3c(Cl)c2c1
T/C [1]: 98 % of control
T/C [2]: 97 % of control
T/C [9]: 87 % of control
T/C (endpoint: mean survival time, dose: 200.0 mg/kg/injection, schedule: Q04DX003 (ip), vehicle: saline with Tween-80): 101 % of control
